Test results taken from patent US20160075653A1, “NEMATICIDAL N-(PHENYLCYCLOALKYL)CARBOXAMIDES AND N-(PHENYLCYCLOALKYL)THIOCARBOXAMIDES” (BAYER CROPSCIENCE AKTIENGESELLSCHAFT, priority 2013, published 2016).

Legend:
Meloidogyne incognita = Meloidogyne incognita test (MELGIN), gall formation on salad seedlings; type: in vivo; conditions: application rate 20 ppm, after 14 days
Experimental: Meioidovnve incomita—Test (MELGIN)
Solvent: 125.0 parts by weight of acetone
To produce a suitable preparation of active compound, 1 part by weight of active compound is mixed with the stated amount of solvent, and the concentrate is diluted with water to the desired concentration.
Vessels are filled with sand, a solution of the active ingredient, a suspension containing eggs and larvae of the southern root-knot nematode (Meloidogyne incognita) and salad seeds. The salad seeds germinate and the seedlings grow. Galls develop in the roots.
After 14 days the nematicidal activity is determined on the basis of the percentage of gall formation. 100% means that no galls were found; 0% means the number of galls found on the roots of the treated plants was equal to that in untreated control plants.

[1] = Measurement of log P values by HPLC on reversed phase columns (methods [a] pH 2.3, [b] pH 2.7, [c] pH 7.8); type: physicochemical
Procedure, shortened: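 Determined per EEC Directive 79/831 Annex V.A8 by reversed-phase HPLC, 10-95% acetonitrile gradient: [a] pH 2.3, 0.1% phosphoric acid; [b] LC-MS, pH 2.7, 0.1% formic acid; [c] LC-MS, pH 7.8, 0.001 molar ammonium hydrogen carbonate. Calibrated with C3-C16 alkan-2-ones by retention-time interpolation.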

[2] = HPLC reversed phase, method [b] (pH 2.7)
[3] = HPLC on reversed phase column, method [b], pH 2.7
[4] = method [b], HPLC reversed phase, pH 2.7
[5] = method [c], HPLC reversed phase, pH 7.8
[6] = HPLC on reversed phase column, method [c], pH 7.8

Structure (SMILES)	nematicidal activity (percentage of gall formation; 100% = no galls) (Meloidogyne incognita) [%]	logP [1, 2]	further results
O=C(N[C@@H]1CC[C@@H]1c1ccc(F)cc1C(F)(F)F)c1cccnc1Cl (relative stereo) [Compound 515]	100	2.73^[b]	–
O=C(N[C@@H]1CC[C@@H]1c1ccccc1C(F)(F)F)c1nccnc1Cl (relative stereo) [Compound 623]	100	–	logP [1, 3]: 2.79^[b]
O=C(NC1CCC1c1ccccc1C(F)(F)F)c1ccccc1Cl (stereo not shown) [Compound 432]	100	3.30^[b]	–
O=C(N[C@@H]1CC[C@H]1c1ccc(F)cc1C(F)(F)F)c1cccnc1C(F)(F)F (relative stereo) [Compound 487]	90	3.20^[b]	–
Cc1nc(C(F)(F)F)c(C(=O)N[C@@H]2CC[C@@H]2c2ccccc2Cl)s1 (relative stereo) [Compound 545]	100	3.15^[b]	–
O=C(N[C@@H]1CC[C@@H]1c1cc(F)ccc1C(F)(F)F)c1cccnc1Cl (relative stereo) [Compound 571]	100	2.75^[b]	–
O=C(N[C@@H]1CC[C@@H]1c1c(F)cccc1C(F)(F)F)c1sccc1I (relative stereo) [Compound 584]	100	4.00^[b]	–
O=C(N[C@@H]1CC[C@@H]1c1ccccc1Cl)c1ccccc1Br (relative stereo) [Compound 253]	100	3.18^[b]	–
O=C(N[C@@H]1CC[C@H]1c1cccc(F)c1C(F)(F)F)c1cccnc1C(F)(F)F (relative stereo) [Compound 642]	90	–	logP [1, 3]: 3.15^[b]
O=C(NC1CCC1c1ccc(Cl)cc1Cl)c1c(F)cccc1F (stereo not shown) [Compound 482]	90	3.70^[b]	–
O=C(NC1CCC1c1ccccc1C(F)(F)F)c1cccnc1C(F)(F)F (stereo not shown) [Compound 235]	100	–	logP [1, 4]: 2.94^[b]
O=C(N[C@@H]1CC[C@@H]1c1ccc(Cl)cc1Cl)c1ncccc1Cl (relative stereo) [Compound 260]	100	3.28^[b]	–
O=C(NC1CC1c1ccc(Cl)cc1Cl)c1sccc1Cl (stereo not shown) [Compound 213]	100	–	logP [1, 4]: 4.08^[b]; logP [1, 5]: 4.02^[c];
O=C(N[C@@H]1CC[C@@H]1c1c(F)cccc1C(F)(F)F)c1ccccc1Cl (relative stereo) [Compound 553]	100	3.42^[b]	–
O=C(N[C@@H]1CC[C@@H]1c1c(F)cccc1C(F)(F)F)c1ccccc1C(F)(F)F (relative stereo) [Compound 585]	100	3.60^[b]	–
O=C(N[C@@H]1CC[C@@H]1c1cccc(F)c1C(F)(F)F)c1ccccc1C(F)(F)F (relative stereo) [Compound 589]	100	3.38^[b]	–
O=C(N[C@@H]1CC[C@@H]1c1cc(F)ccc1C(F)(F)F)c1ccccc1Br (relative stereo) [Compound 560]	100	3.38^[b]	–
Cn1cc(C(=O)N[C@@H]2CC[C@@H]2c2cc(F)ccc2C(F)(F)F)c(C(F)F)n1 (relative stereo) [Compound 556]	90	2.85^[b]	–
O=C(N[C@@H]1CC[C@@H]1c1c(F)cccc1C(F)(F)F)c1ccccc1Br (relative stereo) [Compound 563]	100	3.46^[b]	–
O=C(N[C@@H]1CC[C@@H]1c1cccc(F)c1C(F)(F)F)c1c(F)cccc1F (relative stereo) [Compound 639]	100	–	logP [1, 3]: 3.08^[b]

Structure (SMILES)	nematicidal activity (percentage of gall formation; 100% = no galls) (Meloidogyne incognita) [%]	logP [1, 2]	further results
O=C(N[C@@H]1CC[C@@H]1c1cc(F)ccc1C(F)(F)F)c1cccnc1 (relative stereo) [Compound 587]	90	2.22^[b]	–
O=C(NC1CCC1c1ccc(Cl)cc1Cl)c1ccccc1C(F)(F)F (stereo not shown) [Compound 476]	90	3.72^[b]	–
O=C(N[C@@H]1CC[C@@H]1c1c(F)cccc1C(F)(F)F)c1nccnc1Cl (relative stereo) [Compound 576]	100	3.02^[b]	–
CS(=O)(=O)c1ccccc1C(=O)N[C@@H]1C[C@@H]1c1ccc(Cl)cc1Cl (relative stereo) [Compound 609]	100	–	logP [1, 3]: 2.62^[b]; logP [1, 6]: 2.61^[c];
O=C(NC1CCCC1c1ccccc1Cl)c1cccnc1C(F)(F)F (stereo not shown) [Compound 297]	100	3.05^[b]	–
O=C(N[C@@H]1CC[C@@H]1c1ccccc1Cl)c1ccccc1[N+](=O)[O-] (relative stereo) [Compound 538]	100	2.71^[b]	–
O=C(NC1CCC1c1ccc(Cl)cc1Cl)c1ccccc1Br (stereo not shown) [Compound 472]	90	3.60^[b]	–
O=C(N[C@@H]1CC[C@@H]1c1ccc(F)cc1C(F)(F)F)c1ccccc1[N+](=O)[O-] (relative stereo) [Compound 522]	90	3.04^[b]	–
O=C(NC1CCC1c1ccccc1C(F)(F)F)c1ccccc1C(F)(F)F (stereo not shown) [Compound 434]	90	3.44^[b]	–
O=C(NC1CC1c1ccc(Cl)cc1Cl)c1occc1Br (stereo not shown) [Compound 214]	100	–	logP [1, 4]: 3.56^[b]; logP [1, 5]: 3.44^[c];
O=C(NC1CCCC1c1ccc(Cl)cc1Cl)c1cccnc1C(F)(F)F (stereo not shown) [Compound 358]	100	3.54^[b]	–
O=C(N[C@@H]1CC[C@@H]1c1cccc(F)c1C(F)(F)F)c1ncccc1Cl (relative stereo) [Compound 617]	100	–	logP [1, 3]: 2.97^[b]
O=C(N[C@@H]1CC[C@@H]1c1ccc(F)cc1C(F)(F)F)c1ccccc1 (relative stereo) [Compound 505]	90	2.97^[b]	–
O=C(NC1CC1c1ccc(Cl)cc1)c1ccccc1C(F)(F)F (stereo not shown) [Compound 271]	90	2.98^[b]	logP ([1]; HPLC reversed phase, method [c] pH 7.8): 2.94^[c];
O=C(N[C@@H]1CC[C@@H]1c1c(F)cccc1C(F)(F)F)c1ncccc1Cl (relative stereo) [Compound 537]	100	2.92^[b]	–
O=C(NC1CCC1c1ccc(F)cc1C(F)(F)F)c1sccc1I (stereo not shown) [Compound 520]	100	3.82^[b]	–
O=C(NC1CCC1c1ccccc1C(F)(F)F)c1ccccc1I (stereo not shown) [Compound 427]	100	3.44^[b]	–
O=C(NC1CCCC1c1ccc(Cl)cc1Cl)c1ccccc1I (stereo not shown) [Compound 352]	100	4.04^[b]	–
O=C(NC1CCC1c1ccccc1C(F)(F)F)c1ncccc1Br (stereo not shown) [Compound 695]	100	–	logP [1, 3]: 3.17^[b]; logP [1, 6]: 3.10^[c];
O=C(N[C@@H]1CC[C@@H]1c1cccc(F)c1C(F)(F)F)c1cccnc1Cl (relative stereo) [Compound 647]	100	–	logP [1, 3]: 2.66^[b]
